Experimental data published in PubChem BioAssay AID1259407 (Chemical Carcinogenesis Research Information System (CCRIS), 2018).
“Also recorded” adds a separate entry of the source. The source made the active and inactive calls. No rule for the calls is given here.

Tested on: CCRIS mutagenicity, Ames/micronucleus/aberration tests
Assay: CCRIS mutagenicity studies

For `OO`, the mutagenic call (End Point: IN VITRO CHROMOSOMAL ABERRATIONS, Test System: CHO CELLS, Metabolic Activation: NONE) was “active; positive (structural changes)”, the mutagenic call (End Point: IN VITRO CHROMOSOMAL ABERRATIONS, Test System: CHO-K1, Metabolic Activation: NONE) was “active; positive” and the mutagenic call (End Point: IN VITRO CHROMOSOMAL ABERRATIONS, Test System: SYRIAN HAMSTER EMBRYO (SHE) CELLS, Metabolic Activation: NONE) was “active; positive (structural changes)”. The mutagenic call (End Point: IN VITRO MICRONUCLEUS, Test System: CHL/IU CELLS, Metabolic Activation: NONE) was “active; positive”, the mutagenic call (End Point: IN VITRO MICRONUCLEUS, Test System: CHO CELLS, Metabolic Activation: RAT, LIVER, S-9, AROCLOR 1254) was “inactive; negative” and the mutagenic call (End Point: IN VITRO MICRONUCLEUS, Test System: HUMAN LYMPHOCYTES, Metabolic Activation: NONE) was “inactive; negative; main effect of h2o2 was necrosis”. For the same compound, the mutagenic call (End Point: In vitro micronucleus, Test System: Chinese hamster V79 cells, Metabolic Activation: None) was “active; positive (hibiscus tiliaceus l methanolic extract at doses above 0.010 mg/ml had”, the mutagenic call (End Point: In vitro micronucleus, Test System: Chinese hamster ovary (CHO) cells, Metabolic Activation: None) was “active; positive (lycopene (10, 25 and 50 um) significantly reduced the number of micron” and the mutagenic call (Test System: AMES SALMONELLA TYPHIMURIUM, Strain/Indicator: SB1106, Metabolic Activation: NONE, Method: PREINCUBATION) was “active; positive”. For the same compound, the mutagenic call (Test System: AMES SALMONELLA TYPHIMURIUM, Strain/Indicator: SB1106, Metabolic Activation: NONE, Method: STANDARD PLATE) was “active; positive”, the mutagenic call (Test System: AMES SALMONELLA TYPHIMURIUM, Strain/Indicator: SB1106P, Metabolic Activation: NONE, Method: PREINCUBATION) was “active; positive” and the mutagenic call (Test System: AMES SALMONELLA TYPHIMURIUM, Strain/Indicator: SB1106P, Metabolic Activation: NONE, Method: STANDARD PLATE) was “active; positive”. For the same compound, the mutagenic call (Test System: AMES SALMONELLA TYPHIMURIUM, Strain/Indicator: SB1111, Metabolic Activation: NONE, Method: PREINCUBATION) was “inactive; negative”, the mutagenic call (Test System: AMES SALMONELLA TYPHIMURIUM, Strain/Indicator: SB1111, Metabolic Activation: NONE, Method: STANDARD PLATE) was “active; positive” and the mutagenic call (Test System: AMES SALMONELLA TYPHIMURIUM, Strain/Indicator: TA92, Metabolic Activation: NONE, Method: PREINCUBATION) was “inactive; negative”. The mutagenic call (Test System: AMES SALMONELLA TYPHIMURIUM, Strain/Indicator: TA97, Metabolic Activation: NONE, Method: STANDARD PLATE) was “active; positive”, the mutagenic call (Test System: AMES SALMONELLA TYPHIMURIUM, Strain/Indicator: TA97, Metabolic Activation: RAT, LIVER, S-9, PHENOBARBITAL, Method: LIQUID INCUBATION) was “active; positive” and the mutagenic call (Test System: AMES SALMONELLA TYPHIMURIUM, Strain/Indicator: TA97, Metabolic Activation: RAT, LIVER, S-9, PHENOBARBITAL, Method: STANDARD PLATE) was “active; positive”. For the same compound, the mutagenic call (Test System: AMES SALMONELLA TYPHIMURIUM, Strain/Indicator: TA98, Metabolic Activation: NONE, Method: PREINCUBATION) was “inactive; negative”, the mutagenic call (Test System: AMES SALMONELLA TYPHIMURIUM, Strain/Indicator: TA98, Metabolic Activation: NONE, Method: STANDARD PLATE) was “inactive; negative” and the mutagenic call (Test System: AMES SALMONELLA TYPHIMURIUM, Strain/Indicator: TA98, Metabolic Activation: RAT, LIVER, S-9, AROCLOR 1254, Method: PREINCUBATION) was “inactive; negative”. For the same compound, the mutagenic call (Test System: AMES SALMONELLA TYPHIMURIUM, Strain/Indicator: TA98, Metabolic Activation: RAT, LIVER, S-9, AROCLOR 1254, Method: STANDARD PLATE) was “inactive; negative”, the mutagenic call (Test System: AMES SALMONELLA TYPHIMURIUM, Strain/Indicator: TA100, Metabolic Activation: NONE, Method: PREINCUBATION) was “inactive; negative” and the mutagenic call (Test System: AMES SALMONELLA TYPHIMURIUM, Strain/Indicator: TA100, Metabolic Activation: NONE, Method: STANDARD PLATE) was “active; positive”. The mutagenic call (Test System: AMES SALMONELLA TYPHIMURIUM, Strain/Indicator: TA100, Metabolic Activation: RAT, LIVER, S-9, AROCLOR 1254, Method: PREINCUBATION) was “inactive; negative”, the mutagenic call (Test System: AMES SALMONELLA TYPHIMURIUM, Strain/Indicator: TA100, Metabolic Activation: RAT, LIVER, S-9, AROCLOR 1254, Method: STANDARD PLATE) was “active; positive” and the mutagenic call (Test System: AMES SALMONELLA TYPHIMURIUM, Strain/Indicator: TA102, Metabolic Activation: RAT, LIVER, S-9, AROCLOR 1254, Method: PREINCUBATION) was “inactive; negative”. The mutagenic call (Test System: AMES SALMONELLA TYPHIMURIUM, Strain/Indicator: TA104, Metabolic Activation: NONE, Method: PREINCUBATION) was “active; positive”, the mutagenic call (Test System: AMES SALMONELLA TYPHIMURIUM, Strain/Indicator: TA104, Metabolic Activation: NONE, Method: STANDARD PLATE) was “active; positive” and the mutagenic call (Test System: AMES SALMONELLA TYPHIMURIUM, Strain/Indicator: TA1535, Metabolic Activation: NONE, Method: PREINCUBATION) was “inactive; negative”. The mutagenic call (Test System: AMES SALMONELLA TYPHIMURIUM, Strain/Indicator: TA1535, Metabolic Activation: NONE, Method: STANDARD PLATE) was “inactive; negative”, the mutagenic call (Test System: AMES SALMONELLA TYPHIMURIUM, Strain/Indicator: TA1535, Metabolic Activation: RAT, LIVER, S-9, AROCLOR 1254, Method: STANDARD PLATE) was “inactive; negative” and the mutagenic call (Test System: AMES SALMONELLA TYPHIMURIUM, Strain/Indicator: TA1537, Metabolic Activation: NONE, Method: STANDARD PLATE) was “inactive; negative”. The mutagenic call (Test System: AMES SALMONELLA TYPHIMURIUM, Strain/Indicator: TA1537, Metabolic Activation: RAT, LIVER, S-9, AROCLOR 1254, Method: STANDARD PLATE) was “inactive; negative”, the mutagenic call (Test System: AMES SALMONELLA TYPHIMURIUM, Strain/Indicator: TA1537, Metabolic Activation: RAT, LIVER, S-9, PHENOBARBITAL, Method: LIQUID INCUBATION) was “active; positive” and the mutagenic call (Test System: AMES SALMONELLA TYPHIMURIUM, Strain/Indicator: TA1537, Metabolic Activation: RAT, LIVER, S-9, PHENOBARBITAL, Method: STANDARD PLATE) was “active; positive”. For the same compound, the mutagenic call (Test System: AMES SALMONELLA TYPHIMURIUM, Strain/Indicator: TA1538, Metabolic Activation: NONE, Method: STANDARD PLATE) was “inactive; negative”, the mutagenic call (Test System: AMES SALMONELLA TYPHIMURIUM, Strain/Indicator: TA1538, Metabolic Activation: RAT, LIVER, S-9, AROCLOR 1254, Method: STANDARD PLATE) was “inactive; negative” and the mutagenic call (Test System: AMES SALMONELLA TYPHIMURIUM, Strain/Indicator: TA1975, Metabolic Activation: NONE, Method: PREINCUBATION) was “inactive; negative”. For the same compound, the mutagenic call (Test System: AMES SALMONELLA TYPHIMURIUM, Strain/Indicator: TA2638, Metabolic Activation: NONE, Method: STANDARD PLATE) was “active; positive”, the mutagenic call (Test System: AMES SALMONELLA TYPHIMURIUM, Strain/Indicator: TA2638A, Metabolic Activation: NONE, Method: STANDARD PLATE) was “active; positive” and the mutagenic call (Test System: AMES SALMONELLA TYPHIMURIUM, Strain/Indicator: YG3001, Metabolic Activation: NONE, Method: PREINCUBATION) was “inactive; negative”. The mutagenic call (Test System: AMES SALMONELLA TYPHIMURIUM, Strain/Indicator: YG3002, Metabolic Activation: NONE, Method: PREINCUBATION) was “inactive; negative”, the mutagenic call (Test System: AMES SALMONELLA TYPHIMURIUM, Strain/Indicator: YG3003, Metabolic Activation: NONE, Method: PREINCUBATION) was “active; positive” and the mutagenic call (Test System: Ames Salmonella typhimurium, Strain/Indicator: TA102, Metabolic Activation: None, Method: Preincubation) was “active; positive (decrease in mutagenicity when 0.99-15.90 mg/plate of chloroform extrac; also recorded: active; positive (dose related decrease in mutagenicity when 1.82-7.30 mg/plate of metha”. The mutagenic call (Test System: Ames Salmonella typhimurium, Strain/Indicator: TA102, Metabolic Activation: Rat, Liver, S-9, Aroclor 1254, Method: Preincubation) was “active; positive (decrease in mutagenicity when 0.99-15.90 mg/plate of chloroform extrac; also recorded: active; positive (decrease in mutagenicity when 0.46 or 0.91 mg/plate of methanol extrac”, the mutagenic call (Test System: CHINESE HAMSTER G10, Strain/Indicator: G10 (GPT)/6-THIOGUANINE, Metabolic Activation: NONE) was “inactive; negative” and the mutagenic call (Test System: CHINESE HAMSTER G12, Strain/Indicator: G12 (GPT)/6-THIOGUANINE, Metabolic Activation: NONE) was “active; positive”. The mutagenic call (Test System: CHINESE HAMSTER V79 CELLS, Strain/Indicator: V79 CELLS (HPRT)/6-THIOGUANINE, Metabolic Activation: NONE, Method: PREINCUBATION) was “inactive; negative”, the mutagenic call (Test System: CHINESE HAMSTER V-79, Strain/Indicator: V-79 (HPRT)/6-THIOGUANINE, Metabolic Activation: NONE) was “inactive; negative” and the mutagenic call (Test System: CHINESE HAMSTER V-79, Strain/Indicator: V-79/6-THIOGUANINE, Metabolic Activation: NONE, Method: FLASK ASSAY) was “inactive; negative”. For the same compound, the mutagenic call (Test System: CHINESE HAMSTER V-79, Strain/Indicator: V-79/6-THIOGUANINE, Metabolic Activation: NONE, Method: STANDARD PLATE) was “active; positive”, the mutagenic call (Test System: CHINESE HAMSTER V-79, Strain/Indicator: V-79/8-AZAGUANINE, Metabolic Activation: NONE) was “active; positive” and the mutagenic call (Test System: Chinese hamster ovary cells, Strain/Indicator: EM9 (HPRT)/6-Thioguanine, Metabolic Activation: None) was “active; positive”. For the same compound, the mutagenic call (Test System: E. COLI, Strain/Indicator: WP2 (PKM101), Metabolic Activation: NONE, Method: STANDARD PLATE) was “active; positive”, the mutagenic call (Test System: E. COLI, Strain/Indicator: WP2, Metabolic Activation: NONE, Method: STANDARD PLATE) was “inactive; negative” and the mutagenic call (Test System: E. COLI, Strain/Indicator: WP2, Metabolic Activation: RAT, LIVER, S-9, AROCLOR 1254, Method: STANDARD PLATE) was “inactive; negative”. The mutagenic call (Test System: E. COLI, Strain/Indicator: WP2 UVRA (PKM101), Metabolic Activation: NONE, Method: STANDARD PLATE) was “active; positive”, the mutagenic call (Test System: HCT116 COLON CANCER CELLS, Strain/Indicator: HCT116 CELLS (HPRT)/6-THIOGUANINE, Metabolic Activation: NONE, Method: PREINCUBATION) was “active; positive” and the mutagenic call (Test System: HUMAN T LYMPHOCYTES, Strain/Indicator: PRIMARY CULTURES (HPRT)/6-THIOGUANINE, Metabolic Activation: NONE, Method: PREINCUBATION) was “active; positive”. The mutagenic call (Test System: MOUSE LYMPHOMA, Strain/Indicator: L5178Y (TK+/TK-), Metabolic Activation: NONE, Method: SUSPENSION/PLATE) was “active; positive”, the mutagenic call (Test System: UDS HUMAN FIBROBLASTS, Strain/Indicator: THY INCORP (NON-S-PHASE), Metabolic Activation: NONE, Method: AUTORADIOGRAPHY) was “active; positive” and the mutagenic call (Test System: UDS HUMAN FIBROBLASTS, Strain/Indicator: THY INCORP, Metabolic Activation: NONE, Method: AUTORADIOGRAPHY) was “active; positive”.
